Active and inactive are the calls of the source. No cut-off for these calls is given here.
Experiments:
Mus musculus [1] = experiment: Antinociceptive activity in Kunming mouse model assessed as latency of tail withdrawal at 136.2 nmol/kg, sc measured for 60 mins by tail-flick test relative to control; assay type: functional; details: 1 h
Mus musculus [2] = experiment: Antinociceptive activity in Kunming mouse model assessed as latency of tail withdrawal at 136.2 nmol/kg, sc measured for 30 mins by tail-flick test relative to control; assay type: functional; details: 0.5 h
Mus musculus [3] = experiment: Antinociceptive activity in Kunming mouse model assessed as latency of tail withdrawal at 136.2 nmol/kg, sc measured for 10 mins by tail-flick test relative to control; assay type: functional
Mus musculus [4] = experiment: Antinociceptive activity in Kunming mouse model assessed as latency of tail withdrawal at 136.2 nmol/kg, sc measured for 120 mins by tail-flick test relative to control; assay type: functional; details: 2 h
Mus musculus [5] = experiment: Rewarding affect in Kunming mouse model at 13.8 nmol/kg, sc pre-exposed to place conditioning for 3 days followed by compound administration and further re-exposed to place conditioning measured on day 5 by unbiased CPP method; assay type: functional, organism-based; details: time 2.0 day
Mus musculus [6] = experiment: Antinociception activity in Kunming mouse model assessed as analgesic effect at 1.4 nmol/kg, sc administered daily measured for 8 days by tail-flick test; assay type: functional, organism-based; details: time 8.0 day
Mus musculus [7] = experiment: Antinociceptive activity in Kunming mouse model at 1.4 nmol/kg, sc pretreated with NALM subcutaneously followed by compound administration by tail-flick test; assay type: functional, organism-based
Mu-type opioid receptor [8] = biological target: T1, Mu-type opioid receptor (Homo sapiens, UniProt P35372); experiment: Agonist activity at human MOR expressed in CHO-K1 cells co-expressing G-alpha15 by calcium mobilization assay relative to control; assay type: functional, cell-based; details: filed as agonist
T1 sequence (P35372 whole entry): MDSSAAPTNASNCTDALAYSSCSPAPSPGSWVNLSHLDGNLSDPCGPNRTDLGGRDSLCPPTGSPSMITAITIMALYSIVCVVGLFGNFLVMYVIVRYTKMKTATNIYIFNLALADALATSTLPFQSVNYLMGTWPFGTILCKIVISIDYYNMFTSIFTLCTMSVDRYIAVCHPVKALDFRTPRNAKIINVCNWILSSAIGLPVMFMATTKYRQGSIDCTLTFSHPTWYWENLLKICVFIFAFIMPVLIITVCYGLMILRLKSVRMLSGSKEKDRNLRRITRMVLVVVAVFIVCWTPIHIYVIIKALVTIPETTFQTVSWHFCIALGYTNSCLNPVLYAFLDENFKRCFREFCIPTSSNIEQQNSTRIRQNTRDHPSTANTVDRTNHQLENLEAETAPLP

Mus musculus [9] = experiment: Induction of physical dependence in Kunming mouse model assessed as jumping behavior at 0.2 to 10 nmol/kg, sc administered as 7 escalating doses with 8 hr-intervals in-between followed by Nal administration post-2 hrs of last compound dose and further measured for 30 mins by withdrawal assay; assay type: functional, organism-based; details: dose 0.2-10 nmol/kg, time 50.5 hrs
Mus musculus [10] = experiment: Antinociceptive activity in Kunming mouse model assessed as increase in analgesic effect at 0.014 to 1.4 nmol/kg, sc measured for 180 to 360 mins by tail-flick test; assay type: functional, organism-based; details: dose 0.014-1.4 nmol/kg, time 180-360 min
Mus musculus [11] = experiment: Antinociceptive activity in Kunming mouse model at 1.4 nmol/kg, sc in presence of beta-FNA by tail-flick test; assay type: functional, organism-based
Mus musculus [12] = experiment: Antinociceptive activity in Kunming mouse model at 1.4 nmol/kg, sc in presence of NTI by tail-flick test; assay type: functional, organism-based
[13] = biological target: T2, Kappa-type opioid receptor (Homo sapiens, UniProt P41145); experiment: Agonist activity at human KOR expressed in CHO-K1 cells co-expressing G-alpha15 by calcium mobilization assay relative to control; assay type: functional, cell-based; details: filed as agonist
T2 sequence (P41145 whole entry): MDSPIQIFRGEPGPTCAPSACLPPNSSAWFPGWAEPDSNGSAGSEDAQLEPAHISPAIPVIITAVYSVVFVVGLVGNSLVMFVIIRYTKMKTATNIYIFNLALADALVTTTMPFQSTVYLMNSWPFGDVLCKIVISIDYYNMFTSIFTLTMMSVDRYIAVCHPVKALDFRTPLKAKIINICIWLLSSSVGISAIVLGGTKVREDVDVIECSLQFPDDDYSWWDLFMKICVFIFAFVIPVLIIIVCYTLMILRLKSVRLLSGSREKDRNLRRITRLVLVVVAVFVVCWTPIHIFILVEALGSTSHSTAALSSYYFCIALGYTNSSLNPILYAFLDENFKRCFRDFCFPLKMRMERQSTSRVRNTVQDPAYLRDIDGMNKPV

Mus musculus [14] = experiment: Antinociceptive activity in Kunming mouse model at 1.4 nmol/kg, sc pretreated with NALM intracerebroventricularly followed by compound administration by tail-flick test; assay type: functional, organism-based
Mus musculus [15] = experiment: Antinociceptive activity in Kunming mouse model at 1.4 nmol/kg, sc in presence of nor-BNI by tail-flick test; assay type: functional, organism-based
Mus musculus [16] = experiment: Antinociception activity in Kunming mouse model assessed as analgesic effect at 1.4 nmol/kg, sc administered daily measured for 8 days in presence of NTI by tail-flick test; assay type: functional, organism-based; details: time 8.0 day
[17] = biological target: T3, Delta-type opioid receptor (Homo sapiens, UniProt P41143); experiment: Agonist activity at human DOR expressed in CHO-K1 cells co-expressing G-alpha15 by calcium mobilization assay relative to control; assay type: functional, cell-based; details: filed as agonist
T3 sequence (P41143 whole entry): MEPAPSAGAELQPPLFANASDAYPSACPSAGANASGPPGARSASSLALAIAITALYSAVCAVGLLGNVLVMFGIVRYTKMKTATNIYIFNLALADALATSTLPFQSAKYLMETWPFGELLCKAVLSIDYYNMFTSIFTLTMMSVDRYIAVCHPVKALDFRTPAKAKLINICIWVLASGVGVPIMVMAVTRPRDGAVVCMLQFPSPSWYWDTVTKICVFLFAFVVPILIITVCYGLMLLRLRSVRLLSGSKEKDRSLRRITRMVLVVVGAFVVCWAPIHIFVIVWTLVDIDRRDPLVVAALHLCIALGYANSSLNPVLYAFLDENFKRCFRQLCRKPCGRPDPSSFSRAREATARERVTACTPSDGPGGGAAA

Mus musculus [18] = experiment: Antinociceptive activity in Kunming mouse model assessed as increase in analgesic effect at 0.14 to 13.9 nmol/kg, sc measured for 180 to 360 mins by tail-flick test; assay type: functional, organism-based; details: dose 0.14-13.9 nmol/kg, time 180-360 min
Mus musculus [19] = experiment: Antinociception activity in Kunming mouse model assessed as analgesic effect at 13.9 nmol/kg, sc administered daily measured for 8 days by tail-flick test; assay type: functional, organism-based; details: time 8.0 day
Mus musculus [20] = experiment: Antinociceptive activity in Kunming mouse model at 13.9 nmol/kg, sc in presence of NTI by tail-flick test; assay type: functional, organism-based
Mus musculus [21] = experiment: Antinociceptive activity in Kunming mouse model at 13.9 nmol/kg, sc in presence of nor-BNI by tail-flick test; assay type: functional, organism-based
Mus musculus [22] = experiment: Rewarding affect in Kunming mouse model at 139 nmol/kg, sc pre-exposed to place conditioning for 3 days followed by compound administration and further re-exposed to place conditioning measured on day 5 by unbiased CPP method; assay type: functional, organism-based; details: time 2.0 day
Mus musculus [23] = experiment: Antinociceptive activity in Kunming mouse model at 13.9 nmol/kg, sc in presence of beta-FNA by tail-flick test; assay type: functional, organism-based
Mus musculus [24] = experiment: Antinociceptive activity in Kunming mouse model at 13.9 nmol/kg, sc pretreated with NALM subcutaneously followed by compound administration by tail-flick test; assay type: functional, organism-based
Mus musculus [25] = experiment: Induction of physical dependence in Kunming mouse model assessed as jumping behavior at 2.5 to 125 nmol/kg, sc administered as 7 escalating doses with 8 hr-intervals in-between followed by Nal administration post-2 hrs of last compound dose and further measured for 30 mins by withdrawal assay; assay type: functional, organism-based; details: dose 2.5-125 nmol/kg, time 50.5 hrs
Mus musculus [26] = experiment: Antinociceptive activity in Kunming mouse model at 13.9 nmol/kg, sc pretreated with NALM intracerebroventricularly followed by compound administration by tail-flick test; assay type: functional, organism-based
Mu-type opioid receptor [27] = biological target: T1, Mu-type opioid receptor; experiment: Agonist activity at human MOR expressed in CHO-K1 cells co-expressing G-alpha15 by calcium mobilization assay; assay type: functional, cell-based; details: cho-k1
[28] = Stability in mouse plasma assessed as half life at 0.01 mol/L measured for 72 hrs by RP-HPLC analysis; assay type: ADME, cell-free
Mus musculus [29] = experiment: Antinociceptive activity in Kunming mouse model assessed as latency of tail withdrawal at 13.9 nmol/kg, sc measured for 120 mins by tail-flick test relative to control; assay type: functional; details: 2 h
Mus musculus [30] = experiment: Antinociceptive activity in Kunming mouse model administered subcutaneously measured for 5 to 15 mins by acetic acid-induced writhing test; assay type: functional; details: route sc, time 5-15 min
Mus musculus [31] = experiment: Antinociceptive activity in Kunming mouse model administered subcutaneously by tail-flick test; assay type: functional; details: route sc
Mus musculus [32] = experiment: Antinociceptive activity in Kunming mouse model assessed as latency of tail withdrawal at 13.9 nmol/kg, sc measured for 30 mins by tail-flick test relative to control; assay type: functional; details: 0.5 h
[33] = biological target: T2, Kappa-type opioid receptor; experiment: Agonist activity at human KOR expressed in CHO-K1 cells co-expressing G-alpha15 by calcium mobilization assay; assay type: functional, cell-based; details: cho-k1
Mus musculus [34] = experiment: Antinociceptive activity in Kunming mouse model assessed as latency of tail withdrawal at 13.9 nmol/kg, sc measured for 60 mins by tail-flick test relative to control; assay type: functional; details: 1 h
Mus musculus [35] = experiment: Induction of physical dependence in Kunming mouse model assessed as jumping behavior at 5.5 to 275 nmol/kg, sc administered as 7 escalating doses with 8 hr-intervals in-between followed by Nal administration post-2 hrs of last compound dose and further measured for 30 mins by withdrawal assay; assay type: functional, organism-based; details: dose 5.5-275 nmol/kg, time 50.5 hrs
Mus musculus [36] = experiment: Antinociceptive activity in Kunming mouse model assessed as latency of tail withdrawal at 13.9 nmol/kg, sc measured for 10 mins by tail-flick test relative to control; assay type: functional
[37] = biological target: T3, Delta-type opioid receptor; experiment: Agonist activity at human DOR expressed in CHO-K1 cells co-expressing G-alpha15 by calcium mobilization assay; assay type: functional, cell-based; details: cho-k1
Mus musculus [38] = experiment: Antinociceptive activity in Kunming mouse model at 136.2 nmol/kg, sc in presence of NTI by tail-flick test; assay type: functional, organism-based
Mus musculus [39] = experiment: Antinociceptive activity in Kunming mouse model at 136.2 nmol/kg, sc in presence of beta-FNA by tail-flick test; assay type: functional, organism-based
Mus musculus [40] = experiment: Antinociceptive activity in Kunming mouse model at 136.2 nmol/kg, sc in presence of nor-BNI by tail-flick test; assay type: functional, organism-based
Mus musculus [41] = experiment: Antinociceptive activity in Kunming mouse model at 136.2 nmol/kg, sc pretreated with NALM intracerebroventricularly followed by compound administration by tail-flick test; assay type: functional, organism-based
Mus musculus [42] = experiment: Antinociceptive activity in Kunming mouse model at 136.2 nmol/kg, sc pretreated with NALM subcutaneously followed by compound administration by tail-flick test; assay type: functional, organism-based

CC1(C)NC(=O)[C@H](NC(=O)[C@@H](N)Cc2ccc(O)cc2)CCCCNC(=O)C[C@@H](C(=O)N2CCC[C@@H]2C(N)=O)NC(=O)[C@H](Cc2ccccc2)NC1=O
MPE (Mus musculus [1]): 69.3% | MPE (Mus musculus [2]): 91.1% | MPE (Mus musculus [3]): 48.9% | MPE (Mus musculus [4]): 46.1%

NC(=O)[C@@H]1CCCN1C(=O)[C@H]1CC(=O)NCCCC[C@@H](NC(=O)[C@@H](N)Cc2ccc(O)cc2)C(=O)NCC(=O)N[C@@H](Cc2ccc(F)cc2)C(=O)N1
Activity (Mus musculus [5]): inactive | Activity (Mus musculus [6]): Active | Activity (Mus musculus [7]): inactive | Emax (Mu-type opioid receptor [8]): 95.3% | Activity (Mus musculus [9]): inactive | Activity (Mus musculus [10]): Active | Activity (Mus musculus [11]): inactive | Activity (Mus musculus [12]): Active | Emax [13]: 89.3% | Activity (Mus musculus [14]): Active | Activity (Mus musculus [15]): inactive | Activity (Mus musculus [16]): Active | Emax [17]: 110%

CN1C(=O)CNC(=O)[C@H](NC(=O)[C@@H](N)Cc2ccc(O)cc2)CCCCNC(=O)C[C@H](C(=O)N2CCC[C@H]2C(N)=O)NC(=O)[C@@H]1Cc1ccccc1
Activity (Mus musculus [18]): Active | Emax (Mu-type opioid receptor [8]): 90.7% | Activity (Mus musculus [19]): Active | Activity (Mus musculus [20]): Active | Activity (Mus musculus [21]): inactive | Activity (Mus musculus [22]): inactive | Activity (Mus musculus [23]): inactive | Activity (Mus musculus [24]): inactive | Emax [13]: 93.7% | Activity (Mus musculus [25]): inactive | Activity (Mus musculus [26]): Active | Emax [17]: 121%

NC(=O)[C@@H]1CCCCN1C(=O)[C@H]1CC(=O)NCCCC[C@@H](NC(=O)[C@@H](N)Cc2ccc(O)cc2)C(=O)NCC(=O)N[C@@H](Cc2ccccc2)C(=O)N1
EC50 (Mu-type opioid receptor [27]): 0.9 nM | Activity (Mus musculus [18]): Active | half-life at 0.01 mol/L [28]: 18.5 days | MPE (Mus musculus [29]): 56.6% | Emax (Mu-type opioid receptor [8]): 107% | ED50 (Mus musculus [30]): 0.0055 µmol/kg | Activity (Mus musculus [20]): Active | ED50 (Mus musculus [31]): 0.0007 µmol/kg | MPE (Mus musculus [32]): 91.2% | EC50 [33]: 214 nM | Activity (Mus musculus [21]): inactive | Activity (Mus musculus [22]): inactive | Activity (Mus musculus [23]): inactive | Activity (Mus musculus [24]): Active | MPE (Mus musculus [34]): 86.9% | Emax [13]: 99.5% | Activity (Mus musculus [35]): inactive | MPE (Mus musculus [36]): 73.1% | Activity (Mus musculus [26]): inactive | EC50 [37]: 0.2 nM | Emax [17]: 101%

CC1(C)NC(=O)[C@H](NC(=O)[C@@H](N)Cc2ccc(O)cc2)CCCCNC(=O)C[C@H](C(=O)N2CCC[C@H]2C(N)=O)NC(=O)[C@H](Cc2ccccc2)NC1=O
Activity (Mus musculus [38]): Active | Emax (Mu-type opioid receptor [8]): 100% | Activity (Mus musculus [39]): inactive | Activity (Mus musculus [40]): inactive | Activity (Mus musculus [41]): Active | Emax [13]: 89.2% | Activity (Mus musculus [42]): inactive | Emax [17]: 103%

From ChEMBL document CHEMBL5532665 (J Med Chem, 2024)
